According to US10227342B2 (ARIAD PHARMACEUTICALS, INC., priority 2014, dated 2019):

Key:
Assay type in all cases: cell-based
[1] = molecular target: Her2 exon 20 YVMA insertion (A775_G776ins YVMA) (Homo sapiens (Human), UniProt P04626, INS775YVMA); assay: Ba/F3-Her2 Exon20 YVMA cell anti-proliferative assay (CellTiter 96 MTS, 72 h); settings: Ba/F3-Her2 Exon20 YVMA cells
Text: Ba/F3 cells expressing Her2 Exon20 YVMA insertions (named Ba/F3-Her2 Exon20 YVMA) can proliferate in the absence of IL-3.

[2] = molecular target: human EGFR E746-A750 deletion and T790M Mutation (DT) (Homo sapiens (Human), UniProt P00533, DEL746-750/T790M); assay: Ba/F3-EGFR-Del/T790M cell anti-proliferative assay (CellTiter 96 MTS, 72 h); settings: Ba/F3-EGFR-Del/T790M cells; read-out: EGFR exon 19 deletion and T790M mutation IC50
Sequence of human EGFR E746-A750 deletion and T790M Mutation (DT) (P00533 other isoform, or with tags, fused parts or gaps T790M/del E746-A750): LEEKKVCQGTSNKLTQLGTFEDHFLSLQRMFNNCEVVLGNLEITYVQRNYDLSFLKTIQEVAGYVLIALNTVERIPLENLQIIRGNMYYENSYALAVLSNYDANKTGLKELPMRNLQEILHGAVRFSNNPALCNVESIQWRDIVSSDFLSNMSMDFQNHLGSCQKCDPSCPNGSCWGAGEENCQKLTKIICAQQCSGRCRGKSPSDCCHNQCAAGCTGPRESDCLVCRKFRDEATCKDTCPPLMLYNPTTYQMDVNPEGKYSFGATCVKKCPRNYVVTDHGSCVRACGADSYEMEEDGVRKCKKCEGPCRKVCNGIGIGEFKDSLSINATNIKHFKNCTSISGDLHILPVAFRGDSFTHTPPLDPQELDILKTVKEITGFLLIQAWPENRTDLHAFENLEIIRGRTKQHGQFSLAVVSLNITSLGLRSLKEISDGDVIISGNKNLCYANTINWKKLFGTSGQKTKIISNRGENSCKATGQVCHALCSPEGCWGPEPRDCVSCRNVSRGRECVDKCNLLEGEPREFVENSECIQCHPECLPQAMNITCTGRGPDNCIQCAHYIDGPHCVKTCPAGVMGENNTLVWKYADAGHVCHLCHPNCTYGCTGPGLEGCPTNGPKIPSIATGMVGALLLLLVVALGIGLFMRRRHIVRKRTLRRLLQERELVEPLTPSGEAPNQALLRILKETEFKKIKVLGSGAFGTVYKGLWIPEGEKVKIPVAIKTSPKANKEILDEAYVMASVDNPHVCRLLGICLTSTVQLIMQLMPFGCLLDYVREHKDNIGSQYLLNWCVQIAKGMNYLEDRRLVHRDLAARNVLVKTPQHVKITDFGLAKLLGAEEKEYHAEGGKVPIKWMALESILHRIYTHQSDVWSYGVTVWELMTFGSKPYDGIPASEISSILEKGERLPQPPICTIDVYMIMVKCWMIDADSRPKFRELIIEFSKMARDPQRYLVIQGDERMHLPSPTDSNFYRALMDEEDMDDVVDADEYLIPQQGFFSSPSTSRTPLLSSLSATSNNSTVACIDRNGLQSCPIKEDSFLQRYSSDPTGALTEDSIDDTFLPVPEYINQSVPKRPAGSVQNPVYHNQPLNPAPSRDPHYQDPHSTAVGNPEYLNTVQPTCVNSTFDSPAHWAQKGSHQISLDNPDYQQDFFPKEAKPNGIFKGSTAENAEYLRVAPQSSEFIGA
Experimental: An expression vector, pLVX-IRES puro (Clontech) coding for human EGFR E746-A750 deletion and T790M Mutation, was transfected into HEK293 cells by the Trans-Lentiviral ORF Packaging System (Thermo Scientific), to produce virus encoding EGFR exon 19 deletion and T790M mutations. […] Ba/F3 cells expressing EGFR E746-A750 deletion and T790M Mutation (named Ba/F3-EGFR-Del/T790M) can proliferate in the absence of IL-3. The anti-proliferative activity of compounds was determined as follows: BaF3-EGFR-Del/T790M cells seeded in 96 well plates (2500 cells/well) were treated with test compound (dissolved in DMSO) at a series of concentrations (4-fold dilution, top concentration: 10,000 nM). The plates were incubated for 72 h in a 37° C. incubator with 5% CO2, and the number of viable cells in each well were measured indirectly by CellTiter 96® Aqueous One Solution Cell Proliferation Assay (Promega; this assay is a colorimetric method for determining the number of viable cells through measurement of their metabolic activity by detection of enzymatic conversion of tetrazolium salts into blue formazan derivatives). Reagent (20 μL) was added into each well, and the plates were returned to the incubator for 2 h. The absorbance in each well was then measured at 490 nm using an Envision plate reader (Perkin Elmer).

[3] = molecular target: human EGFR exon 20 insertion NPG (H773_V774insNPG) (Homo sapiens, UniProt P00533, INS773NPG, cells depend on it); assay: Ba/F3-EGFR-Exon20-NPG cell anti-proliferative assay (CellTiter 96 MTS, 72 h); settings: read-out: EGFR exon 20 NPG insertion IC50
Sequence of human EGFR exon 20 insertion NPG (H773_V774insNPG) (P00533 with tags, fused parts or gaps INS773NPG limits assumed): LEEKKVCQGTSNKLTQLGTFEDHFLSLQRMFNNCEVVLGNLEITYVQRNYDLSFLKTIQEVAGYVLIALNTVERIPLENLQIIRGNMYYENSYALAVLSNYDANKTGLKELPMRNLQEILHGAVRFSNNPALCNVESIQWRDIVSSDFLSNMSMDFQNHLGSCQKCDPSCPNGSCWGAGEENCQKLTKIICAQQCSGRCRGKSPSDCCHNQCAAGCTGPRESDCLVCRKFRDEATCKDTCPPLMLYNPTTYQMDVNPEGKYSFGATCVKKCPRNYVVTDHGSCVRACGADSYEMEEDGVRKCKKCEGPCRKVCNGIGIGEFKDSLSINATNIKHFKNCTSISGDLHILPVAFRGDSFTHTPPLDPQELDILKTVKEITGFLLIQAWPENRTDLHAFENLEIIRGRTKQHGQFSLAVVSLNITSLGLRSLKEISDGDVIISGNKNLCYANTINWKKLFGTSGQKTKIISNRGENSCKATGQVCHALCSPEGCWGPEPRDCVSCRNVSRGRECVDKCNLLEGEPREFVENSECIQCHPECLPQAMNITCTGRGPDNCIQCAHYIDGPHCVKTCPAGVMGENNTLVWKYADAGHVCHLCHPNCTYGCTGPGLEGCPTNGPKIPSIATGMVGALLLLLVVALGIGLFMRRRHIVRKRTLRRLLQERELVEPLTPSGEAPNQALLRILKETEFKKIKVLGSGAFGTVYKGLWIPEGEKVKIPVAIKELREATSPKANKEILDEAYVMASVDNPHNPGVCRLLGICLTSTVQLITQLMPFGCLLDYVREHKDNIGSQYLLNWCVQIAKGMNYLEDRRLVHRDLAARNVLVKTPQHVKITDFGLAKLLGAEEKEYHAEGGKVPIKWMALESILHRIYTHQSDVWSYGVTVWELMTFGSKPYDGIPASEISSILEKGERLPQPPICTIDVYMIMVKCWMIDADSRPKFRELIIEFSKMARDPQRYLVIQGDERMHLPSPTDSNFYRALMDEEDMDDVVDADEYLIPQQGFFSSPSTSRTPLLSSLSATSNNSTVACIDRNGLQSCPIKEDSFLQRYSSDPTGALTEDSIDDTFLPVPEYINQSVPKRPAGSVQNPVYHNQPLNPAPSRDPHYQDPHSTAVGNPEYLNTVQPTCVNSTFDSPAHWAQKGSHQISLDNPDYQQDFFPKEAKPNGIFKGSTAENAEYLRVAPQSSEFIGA

[4] = molecular target: human EGFR exon 20 insertion ASV (V769_D770insASV) (Homo sapiens (Human), UniProt P00533, INS769ASV); assay: Ba/F3-EGFR-Exon20-ASV cell anti-proliferative assay (CellTiter 96 MTS, 72 h); settings: Ba/F3-EGFR-Exon20-ASV cells;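 also: Ba/F3 cells bearing the EGFR exon 20 ASV insertion, a line able to proliferate without IL-3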
Sequence of human EGFR exon 20 insertion ASV (V769_D770insASV) (P00533 other isoform, or with tags, fused parts or gaps ins ASV behind 769): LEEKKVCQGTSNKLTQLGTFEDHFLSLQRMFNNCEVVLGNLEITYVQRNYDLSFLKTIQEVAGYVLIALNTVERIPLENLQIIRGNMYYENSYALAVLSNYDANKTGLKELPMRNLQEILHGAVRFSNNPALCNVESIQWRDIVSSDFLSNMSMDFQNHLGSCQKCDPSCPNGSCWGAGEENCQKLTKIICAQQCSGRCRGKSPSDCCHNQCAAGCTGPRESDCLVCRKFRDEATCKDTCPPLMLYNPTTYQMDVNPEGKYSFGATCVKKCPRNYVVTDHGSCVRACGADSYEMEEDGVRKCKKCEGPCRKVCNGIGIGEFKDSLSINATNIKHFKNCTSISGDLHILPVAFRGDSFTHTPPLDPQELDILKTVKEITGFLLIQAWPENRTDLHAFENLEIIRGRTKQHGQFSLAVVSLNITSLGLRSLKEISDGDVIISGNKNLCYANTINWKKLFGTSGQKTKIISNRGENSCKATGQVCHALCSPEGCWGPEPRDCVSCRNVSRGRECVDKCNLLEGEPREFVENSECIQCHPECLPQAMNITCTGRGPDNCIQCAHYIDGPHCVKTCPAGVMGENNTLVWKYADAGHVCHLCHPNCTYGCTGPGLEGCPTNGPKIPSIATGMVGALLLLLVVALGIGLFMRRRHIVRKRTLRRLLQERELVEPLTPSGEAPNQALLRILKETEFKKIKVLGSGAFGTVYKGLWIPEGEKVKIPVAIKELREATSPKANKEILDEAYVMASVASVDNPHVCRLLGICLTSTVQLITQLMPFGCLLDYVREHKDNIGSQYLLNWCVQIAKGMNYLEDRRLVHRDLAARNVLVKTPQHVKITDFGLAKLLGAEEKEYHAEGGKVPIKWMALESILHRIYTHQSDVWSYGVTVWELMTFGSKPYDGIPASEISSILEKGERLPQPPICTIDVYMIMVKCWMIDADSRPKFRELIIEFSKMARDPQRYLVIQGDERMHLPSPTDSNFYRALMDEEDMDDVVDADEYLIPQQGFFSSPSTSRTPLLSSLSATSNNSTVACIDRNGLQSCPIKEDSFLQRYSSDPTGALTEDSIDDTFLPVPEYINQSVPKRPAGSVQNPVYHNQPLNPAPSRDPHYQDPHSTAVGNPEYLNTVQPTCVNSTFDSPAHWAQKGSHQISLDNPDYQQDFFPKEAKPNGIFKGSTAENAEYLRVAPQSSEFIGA
Experimental: Ba/F3 cells expressing EGFR exon 20 insertions (named Ba/F3-EGFR-Exon20-NPG or Ba/F3-EGFR-Exon20-ASV) can proliferate in the absence of IL-3. The anti-proliferative activity of compounds were determined as follows: BaF3-EGFR-Exon20 cells (NPG or ASV) seeded in 96 well plates (2500 cells/well) were treated with test compound (dissolved in DMSO) at a series of concentrations (4-fold dilution, top concentration: 10,000 nM). The plates were incubated for 72 h in a 37° C. incubator with 5% CO2, and the number of viable cells in each well were measured indirectly by CellTiter 96® Aqueous One Solution Cell Proliferation Assay (Promega) This assay is a colorimetric method for determining the number of viable cells through measurement of their metabolic activity by detection of enzymatic conversion of tetrazolium salts into blue formazan derivatives. Reagent (20 μL) was added into each well, and the plates were returned to the incubator for 2 h. The absorbance in each well was then measured at 490 nm using an Envision plate reader (Perkin Elmer).

Sequence of Her2 exon 20 YVMA insertion (A775_G776ins YVMA) (P04626 other isoform, or with tags, fused parts or gaps ins YVMA behind 775): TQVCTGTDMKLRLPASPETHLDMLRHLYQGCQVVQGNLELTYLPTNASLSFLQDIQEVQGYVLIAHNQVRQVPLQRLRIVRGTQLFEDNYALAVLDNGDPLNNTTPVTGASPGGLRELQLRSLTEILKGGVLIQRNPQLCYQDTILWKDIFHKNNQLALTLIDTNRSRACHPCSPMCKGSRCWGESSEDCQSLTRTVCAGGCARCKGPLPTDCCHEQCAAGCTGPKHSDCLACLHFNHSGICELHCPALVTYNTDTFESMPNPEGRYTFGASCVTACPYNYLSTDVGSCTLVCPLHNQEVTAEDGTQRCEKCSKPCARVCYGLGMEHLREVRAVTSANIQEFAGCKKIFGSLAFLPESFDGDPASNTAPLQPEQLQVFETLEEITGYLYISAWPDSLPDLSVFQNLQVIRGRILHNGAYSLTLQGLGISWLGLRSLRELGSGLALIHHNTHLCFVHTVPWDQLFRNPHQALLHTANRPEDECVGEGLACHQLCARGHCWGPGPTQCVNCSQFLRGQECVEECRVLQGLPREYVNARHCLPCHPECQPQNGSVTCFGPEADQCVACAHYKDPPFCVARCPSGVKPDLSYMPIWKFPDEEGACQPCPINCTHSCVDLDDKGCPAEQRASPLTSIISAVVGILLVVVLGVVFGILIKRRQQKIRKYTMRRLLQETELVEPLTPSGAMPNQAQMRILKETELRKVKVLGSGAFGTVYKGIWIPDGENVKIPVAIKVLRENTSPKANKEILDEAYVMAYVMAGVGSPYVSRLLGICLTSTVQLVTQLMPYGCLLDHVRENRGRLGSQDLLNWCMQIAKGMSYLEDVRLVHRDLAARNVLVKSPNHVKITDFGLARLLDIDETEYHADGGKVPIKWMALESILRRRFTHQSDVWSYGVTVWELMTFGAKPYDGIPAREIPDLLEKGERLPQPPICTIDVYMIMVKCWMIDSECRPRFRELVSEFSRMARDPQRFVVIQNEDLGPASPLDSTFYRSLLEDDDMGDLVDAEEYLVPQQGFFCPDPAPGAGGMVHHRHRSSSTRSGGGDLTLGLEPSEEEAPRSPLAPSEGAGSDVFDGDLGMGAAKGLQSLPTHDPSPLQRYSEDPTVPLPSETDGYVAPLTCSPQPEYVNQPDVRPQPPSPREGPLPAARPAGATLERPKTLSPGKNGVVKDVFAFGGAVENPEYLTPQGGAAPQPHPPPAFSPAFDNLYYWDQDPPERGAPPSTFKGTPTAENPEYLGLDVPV

| Compound | IC50 [1] | IC50 [2] | IC50 [3] | IC50 [4] |
| --- | --- | --- | --- | --- |
| C=CC(=O)Nc1cc(Nc2ncc(Cl)c(-c3cnn4ccccc34)n2)c(OC)cc1N(C)CCN1CCN(C)CC1 [Example 27, N-(5-((5-chloro-4-(pyrazolo[1,5-a]pyridin-3-yl)pyrimidin-2-yl)amino)-4-methoxy-2-(methyl(2-(4-methylpiperazin-1-yl)ethyl)amino)phenyl)acrylamide] | > 1000 nM | < 100 nM | 500 to 1000 nM |  |
| C=CC(=O)Nc1cc(Nc2ncc(C(=O)OC3COC3)c(-c3cn(C)c4ccccc34)n2)c(OC)cc1N(C)CCN(C)C [Example 11, oxetan-3-yl 2-((5-acrylamido-4-((2-(dimethylamino)ethyl)(methyl)amino)-2-methoxyphenyl)amino)-4-(1-methyl-1H-indol-3-yl)pyrimidine-5-carboxylate] | < 100 nM | < 100 nM | < 100 nM | < 100 nM |
| C=CC(=O)Nc1cc(Nc2ncc(C(=O)OC3CN(C)C3)c(-c3cn(C)c4ccccc34)n2)c(OC)cc1N(C)CCN(C)C [Example 12, 1-methylazetidin-3-yl 2-((5-acrylamido-4-((2-(dimethylamino)ethyl)(methyl)amino)-2-methoxyphenyl)amino)-4-(1-methyl-1H-indol-3-yl)pyrimidine-5-carboxylate] | > 1000 nM | > 1000 nM | > 1000 nM | > 1000 nM |
| C=CC(=O)Nc1cc(Nc2ncc(C(=O)OC(C)CC)c(-c3cn(C)c4ccccc34)n2)c(OC)cc1N(C)CCN(C)C (stereo not drawn) [Example 29, sec-butyl 2-((5-acrylamido-4-((2-(dimethylamino)ethyl)(methyl)amino)-2-methoxyphenyl)amino)-4-(1-methyl-1H-indol-3-yl)pyrimidine-5-carboxylate] | < 100 nM | < 100 nM | < 100 nM | < 100 nM |
| C=CC(=O)Nc1cc(Nc2ncc(C(=O)OC(C)C)c(-c3cn(C)c4c(OC)cccc34)n2)c(OC)cc1N(C)CCN(C)C [Example 31, isopropyl 2-((5-acrylamido-4-((2-(dimethylamino)ethyl)(methyl)amino)-2-methoxyphenyl)amino)-4-(7-methoxy-1-methyl-1H-indol-3-yl)pyrimidine-5-carboxylate] | < 100 nM | < 100 nM | < 100 nM | < 100 nM |
| C=CC(=O)Nc1cc(Nc2ncc(C(=O)OC(C)C)c(-c3cn(C4CC4)c4ccccc34)n2)c(OC)cc1N(C)CCN(C)C [Example 79, isopropyl 2-((5-acrylamido-4-((2-(dimethylamino)ethyl)(methyl)amino)-2-methoxyphenyl)amino)-4-(1-cyclopropyl-1H-indol-3-yl)pyrimidine-5-carboxylate] | 100 to 500 nM | < 100 nM | < 100 nM | < 100 nM |
| C=CC(=O)Nc1cc(Nc2ncc(C(=O)OC)c(-n3ccc4ccccc43)n2)c(OC)cc1N(C)C[C@H]1CCCN1C [Example 63, methyl (R)-2-((5-acrylamido-2-methoxy-4-(methyl((1-methylpyrrolidin-2-yl)methyl)amino)phenyl)amino)-4-(1H-indol-1-yl)pyrimidine-5-carboxylate] | 500 to 1000 nM | < 100 nM | < 100 nM | < 100 nM |
| C=CC(=O)Nc1ccc(OC)c(Nc2ncc(C#N)c(-c3cn(C)c4cc(OCCC5CCCN5C)ccc34)n2)c1 (stereo not drawn) [Example 23, N-(3-((5-cyano-4-(1-methyl-6-(2-(1-methylpyrrolidin-2-yl)ethoxy)-1H-indol-3-yl)pyrimidin-2-yl)amino)-4-methoxyphenyl)acrylamide] | 500 to 1000 nM | < 100 nM | < 100 nM | 100 to 500 nM |
| C=CC(=O)Nc1ccc(OC)c(Nc2ncc(C#N)c(-c3cn(C)c4cc(OCCCN(C)C)ccc34)n2)c1 [Example 19, N-(3-((5-cyano-4-(6-(3-(dimethylamino)propoxy)-1-methyl-1H-indol-3-yl)pyrimidin-2-yl)amino)-4-methoxyphenyl)acrylamide] | 500 to 1000 nM | < 100 nM | < 100 nM | 100 to 500 nM |
| C=CC(=O)Nc1cc(Nc2ncc(C(=O)OCC#N)c(-c3cn(C)c4ccccc34)n2)c(OC)cc1N(C)CCN(C)C [Example 38, cyanomethyl 2-((5-acrylamido-4-((2-(dimethylamino)ethyl)(methyl)amino)-2-methoxyphenyl)amino)-4-(1-methyl-1H-indol-3-yl)pyrimidine-5-carboxylate] | < 100 nM | < 100 nM | < 100 nM | < 100 nM |
| C=CC(=O)Nc1cc(Nc2ncc(Cl)c(-c3cnn4ccccc34)n2)c(OC)cc1N(C)CCN(C)CCF [Example 33, N-(5-((5-chloro-4-(pyrazolo[1,5-a]pyridin-3-yl)pyrimidin-2-yl)amino)-2-((2-((2-fluoroethyl)(methyl)amino)ethyl)(methyl)amino)-4-methoxyphenyl)acrylamide] | 500 to 1000 nM | < 100 nM | 100 to 500 nM |  |
| C=CC(=O)Nc1cc(Nc2ncc(CC)c(-c3cnn4ccccc34)n2)c(OC)cc1N(C)CCN(C)C [Example 1, N-(2-((2-(dimethylamino)ethyl)(methyl)amino)-5-((5-ethyl-4-(pyrazolo[1,5-a]pyridin-3-yl)pyrimidin-2-yl)amino)-4-methoxyphenyl)acrylamide] | 100 to 500 nM | < 100 nM | < 100 nM |  |
| C=CC(=O)Nc1cc(Nc2ncc(Cl)c(-c3cnn4ccccc34)n2)c(OC)cc1OCCN1CCOCC1 [Example 50, N-(5-((5-chloro-4-(pyrazolo[1,5-a]pyridin-3-yl)pyrimidin-2-yl)amino)-4-methoxy-2-(2-morpholinoethoxy)phenyl)acrylamide] | > 1000 nM | < 100 nM | > 1000 nM |  |
| C=CC(=O)Nc1cc(Nc2ncc(Cl)c(-c3cn(C)c4ccccc34)n2)c(OC)cc1C#CC(C)(C)N(C)C [Example 46, N-(5-((5-chloro-4-(1-methyl-1H-indol-3-yl)pyrimidin-2-yl)amino)-2-(3-(dimethylamino)-3-methylbut-1-yn-1-yl)-4-methoxyphenyl)acrylamide] | 500 to 1000 nM | < 100 nM | 100 to 500 nM |  |
| C=CC(=O)Nc1cc(Nc2ncc(Cl)c(-c3cn(C)c4ccccc34)n2)c(OC)cc1C#CCN(C)C [Example 45, N-(5-((5-chloro-4-(1-methyl-1H-indol-3-yl)pyrimidin-2-yl)amino)-2-(3-(dimethylamino)prop-1-yn-1-yl)-4-methoxyphenyl)acrylamide] | 500 to 1000 nM | < 100 nM | 100 to 500 nM |  |
| C=CC(=O)Nc1cc(Nc2nccc(-c3cn(C)c4ccccc34)n2)c(OC)cc1N(C)CCNC [Example 57, N-(4-methoxy-2-(methyl(2-(methylamino)ethyl)amino)-5-((4-(1-methyl-1H-indol-3-yl)pyrimidin-2-yl)amino)phenyl)acrylamide] | 100 to 500 nM |  | < 100 nM | 100 to 500 nM |
| C=CC(=O)Nc1cc(Nc2ncc(Cl)c(-c3cn(C)c4ccccc34)n2)c(OC)cc1O[C@@H](COCC)CN(C)C [Example 44, (R)-N-(5-((5-chloro-4-(1-methyl-1H-indol-3-yl)pyrimidin-2-yl)amino)-2-((1-(dimethylamino)-3-ethoxypropan-2-yl)oxy)-4-methoxyphenyl)acrylamide] | 500 to 1000 nM | < 100 nM | 100 to 500 nM |  |
| C=CC(=O)Nc1cc(Nc2ncc(Cl)c(-c3cnn4ccccc34)n2)c(OC)cc1N(C)CCN1CCOCC1 [Example 54, N-(5-((5-chloro-4-(pyrazolo[1,5-a]pyridin-3-yl)pyrimidin-2-yl)amino)-4-methoxy-2-(methyl(2-morpholinoethyl)amino)phenyl)-acrylamide] | > 1000 nM | < 100 nM | 500 to 1000 nM |  |
| C=CC(=O)Nc1cc(Nc2ncc(Cl)c(-c3cnn4ccccc34)n2)c(OC)cc1OCCN1CCCC1 [Example 49, N-(5-((5-chloro-4-(pyrazolo[1,5-a]pyridin-3-yl)pyrimidin-2-yl)amino)-4-methoxy-2-(2-(pyrrolidin-1-yl)ethoxy)phenyl)acrylamide] | 500 to 1000 nM | < 100 nM | 100 to 500 nM |  |
| C=CC(=O)Nc1cc(Nc2ncc(Cl)c(-c3cnn4ccccc34)n2)c(OC)cc1OC(COC)CN(CC)CC (stereo not drawn) [Example 47, N-(5-((5-chloro-4-(pyrazolo[1,5-a]pyridin-3-yl)pyrimidin-2-yl)amino)-2-((1-(diethylamino)-3-methoxypropan-2-yl)oxy)-4-methoxyphenyl) acrylamide] | 500 to 1000 nM | < 100 nM | 100 to 500 nM |  |
| C=CC(=O)Nc1cc(Nc2ncc(Cl)c(-c3cnn4ccccc34)n2)c(OC)cc1N(C)CCN(CC)CC [Example 53, N-(5-((5-chloro-4-(pyrazolo[1,5-a]pyridin-3-yl)pyrimidin-2-yl)amino)-2-((2-(diethylamino)ethyl)-(methyl)amino)-4-methoxyphenyl)acrylamide] | 500 to 1000 nM | < 100 nM | 100 to 500 nM |  |
| C=CC(=O)Nc1cc(Nc2ncc(Cl)c(-c3cn(C)c4c5c(ccc34)CCC5)n2)c(OC)cc1N(C)CCN(C)C [Example 43, N-(5-((5-chloro-4-(1-methyl-1,6,7,8-tetrahydrocyclopenta[g]indol-3-yl)pyrimidin-2-yl)amino)-2-((2-(dimethylamino)ethyl)(methyl)amino)-4-methoxyphenyl)acrylamide] | 100 to 500 nM | < 100 nM | < 100 nM |  |
